In the assay the target is T1, glucosylceramide synthase (Homo sapiens, UniProt Q16739).
T1 construct: made in house; host or cells: Expi293F cells (transient expression, pcDNA3.3-TOPO vector); microsome fraction used as enzyme source
T1 sequence (Q16739 1-394): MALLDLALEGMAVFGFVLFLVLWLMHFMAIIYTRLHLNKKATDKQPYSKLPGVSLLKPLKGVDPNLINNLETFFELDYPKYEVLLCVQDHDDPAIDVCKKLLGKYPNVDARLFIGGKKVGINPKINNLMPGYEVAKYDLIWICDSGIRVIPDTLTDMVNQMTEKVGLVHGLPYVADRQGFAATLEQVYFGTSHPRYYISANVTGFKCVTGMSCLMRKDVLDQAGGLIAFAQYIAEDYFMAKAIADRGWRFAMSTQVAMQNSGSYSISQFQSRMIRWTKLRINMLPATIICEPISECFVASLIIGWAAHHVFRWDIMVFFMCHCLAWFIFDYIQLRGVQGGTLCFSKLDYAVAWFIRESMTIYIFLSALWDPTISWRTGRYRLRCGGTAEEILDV
Put plainly: Glucosylceramide synthase (GCS) enzyme assay, microsome fraction, C8 glucosylceramide quantified by Rapidfire MS/MS. It counts as biochemical. The note with it: test compound 10 μM; 1.7 μM UDP-glucose, 3 μM C8 ceramide; room temperature 60 min; read-out: GCS enzyme inhibitory rate at 10 μM (%) (% of control). Summed up: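 Test compound, 10 μM final, was run against human GCS from transfected Expi293F microsome fractions, using substrate solution of 6 μM C8 ceramide (in DOPC liposomes) plus 3.4 μM UDP-glucose, pH 7.5 Tris buffer, 60 min, room temperature. Product C8 glucosylceramide measured by Rapidfire MS/MS against an internal standard, % inhibition referenced to no-enzyme and DMSO wells.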

Consider `O=C1c2ccnc(-c3ccccc3OCC(F)(F)F)c2CN1c1ccc(C2(O)CCOCC2)cc1` [Example 242, 2-[4-(4-hydroxyoxan-4-yl)phenyl]-4-[2-(2,2,2-trifluoroethoxy)phenyl]-2,3-dihydro-1H-pyrrolo[3,4-c]pyridin-1-one], for which the inhibition at 10 µM is 100%.
Consider `O=C1c2ccnc(-c3ccc(F)cc3OCC(F)(F)F)c2CN1c1ccc(C2(O)CCOC2)cc1` (single isomer, unassigned) [Example 243, (R or S)-4-[4-fluoro-2-(2,2,2-trifluoroethoxy)phenyl]-2-[4-(3-hydroxyoxolan-3-yl)phenyl]-2,3-dihydro-1H-pyrrolo[3,4-c]pyridin-1-one], for which the inhibition at 10 µM turned out to be 97%.
For `O=C1c2ccnc(-c3ccc(F)cc3OCC(F)(F)F)c2CN1c1ccc(OC2CCOCC2)nc1` [Example 167, 4-[4-fluoro-2-(2,2,2-trifluoroethoxy)phenyl]-2-{6-[(oxan-4-yl)oxy]pyridin-3-yl}-2,3-dihydro-1H-pyrrolo[3,4-c]pyridin-1-one], the inhibition at 10 µM worked out at 98%.
In the case of `O=C1c2ccnc(-c3ccccc3OCC(F)(F)F)c2CN1c1ccc(C2(O)CCC2)cc1` [Example 191, 2-[4-(1-hydroxycyclobutyl)phenyl]-4-[2-(2,2,2-trifluoroethoxy)phenyl]-2,3-dihydro-1H-pyrrolo[3,4-c]pyridin-1-one], the inhibition at 10 µM stood at 100%.
Take `NC(=O)c1ccc(-c2nccc3c2CN(c2ccc(F)cc2)C3=O)c(OC(F)F)c1` [Example 40, 3-(difluoromethoxy)-4-[2-(4-fluorophenyl)-1-oxo-2,3-dihydro-1H-pyrrolo[3,4-c]pyridin-4-yl]benzamide]: the inhibition at 10 µM came to 54%.
As for `O=C1c2ccnc(-c3ccccc3OCC(F)(F)F)c2CN1c1ccc(C2(O)CC(F)(F)C2)nc1` [Example 316, 2-[6-(3,3-difluoro-1-hydroxycyclobutyl)pyridin-3-yl]-4-[2-(2,2,2-trifluoroethoxy)phenyl]-2,3-dihydro-1H-pyrrolo[3,4-c]pyridin-1-one], the figure is 99%.
Take `CC(C)Cn1cc(N2Cc3c(ccnc3-c3ccc(F)cc3OCC(F)(F)F)C2=O)cn1` [Example 96, 4-[4-fluoro-2-(2,2,2-trifluoroethoxy)phenyl]-2-[1-(2-methylpropyl)-1H-pyrazol-4-yl]-2,3-dihydro-1H-pyrrolo[3,4-c]pyridin-1-one]: the inhibition at 10 µM worked out at 99%.
With `O=C1c2ccnc(-c3ccccc3OCC(F)(F)F)c2CN1c1ccc(C2(O)CC2)cc1` [Example 222, 2-[4-(1-hydroxycyclopropyl)phenyl]-4-[2-(2,2,2-trifluoroethoxy)phenyl]-2,3-dihydro-1H-pyrrolo[3,4-c]pyridin-1-one], the inhibition at 10 µM worked out at 100%.
As for `CC(C)(O)c1ccc(N2Cc3c(cc(C(F)F)nc3-c3ccccc3OCC(F)(F)F)C2=O)cc1` [Example 327, 6-(difluoromethyl)-2-[4-(2-hydroxypropan-2-yl)phenyl]-4-[2-(2,2,2-trifluoroethoxy)phenyl]-2,3-dihydro-1H-pyrrolo[3,4-c]pyridin-1-one], the inhibition at 10 µM is 100%.
As to `O=C1c2ccnc(-c3ccncc3OCC(F)(F)F)c2CN1c1ccc(C(O)(C(F)F)C(F)F)cc1` [Example 284, 2-[4-(1,1,3,3-tetrafluoro-2-hydroxypropan-2-yl)phenyl]-4-[3-(2,2,2-trifluoroethoxy)pyridin-4-yl]-2,3-dihydro-1H-pyrrolo[3,4-c] pyridin-1-one], the inhibition at 10 µM was found to be 99%.
As to `CC(C)(O)c1ccc(N2Cc3c(ncnc3-c3ccc(F)cc3OCC(F)(F)F)C2=O)cc1` [Example 192, 4-[4-fluoro-2-(2,2,2-trifluoroethoxy)phenyl]-6-[4-(2-hydroxypropan-2-yl)phenyl]-5,6-dihydro-7H-pyrrolo[3,4-d]pyrimidin-7-one], the inhibition at 10 µM came out at 88%.
As to `O=C1c2ccnc(-c3ccncc3OCC(F)(F)F)c2CN1c1ccc(OC(F)F)cn1` [Example 91, 2-[5-(difluoromethoxy)pyridin-2-yl]-4-[3-(2,2,2-trifluoroethoxy)pyridin-4-yl]-2,3-dihydro-1H-pyrrolo[3,4-c]pyridin-1-one], the inhibition at 10 µM was 99%.
With `O=C1c2ccnc(-c3ccc(F)cc3OCC(F)(F)F)c2CN1c1ccc(C(O)C(F)(F)F)cc1` (racemic) [Example 251, rac-4-[4-fluoro-2-(2,2,2-trifluoroethoxy)phenyl]-2-[4-(2,2,2-trifluoro-1-hydroxyethyl)phenyl]-2,3-dihydro-1H-pyrrolo[3,4-c]pyridin-1-one], the inhibition at 10 µM came out at 96%.
As for `O=C1c2ccnc(-c3ccc(F)cc3OCC(F)(F)F)c2CN1c1ccc(C2(F)COC2)cc1` [Example 226, 2-[4-(3-fluorooxetan-3-yl)phenyl]-4-[4-fluoro-2-(2,2,2-trifluoroethoxy)phenyl]-2,3-dihydro-1H-pyrrolo[3,4-c]pyridin-1-one], the figure is 96%; as for `CC(O)c1cc2c(c(-c3ccccc3OCC(F)(F)F)n1)CN(c1ccc(OCC(F)(F)F)cc1)C2=O` (racemic) [Example 341, rac-6-(1-hydroxyethyl)-4-[2-(2,2,2-trifluoroethoxy)phenyl]-2-[4-(2,2,2-trifluoroethoxy)phenyl]-2,3-dihydro-1H-pyrrolo[3,4-c]pyridin-1-one], 100%; as for `O=C1c2ccnc(-c3ccncc3OCC(F)(F)F)c2CN1c1ccc(OC(F)F)nc1` [Example 105, 2-[6-(difluoromethoxy)pyridin-3-yl]-4-[3-(2,2,2-trifluoroethoxy)pyridin-4-yl]-2,3-dihydro-1H-pyrrolo[3,4-c]pyridin-1-one], 96%.
In the case of `COC(=O)c1ccc(N2CC3=C(OC[C@H](C)N=C3c3ccccc3OCC(F)(F)F)C2=O)cc1` [Example 331, methyl 4-{(3S)-3-methyl-8-oxo-5-[2-(2,2,2-trifluoroethoxy)phenyl]-2,3,6,8-tetrahydro-7H-pyrrolo [3,4-f][1,4]oxazepin-7-yl}benzoate], the inhibition at 10 µM worked out at 91%.
As for `Cc1cc2c(c(-c3ccccc3OCC(F)F)n1)CN(c1ccc(OCC(C)(C)O)cc1)C2=O` [Example 365, 4-[2-(2,2-difluoroethoxy)phenyl]-2-[4-(2-hydroxy-2-methylpropoxy)phenyl]-6-methyl-2,3-dihydro-1H-pyrrolo[3,4-c]pyridin-1-one], the inhibition at 10 µM amounted to 100%.
With `Cc1cc2c(c(-c3ccc(F)cc3OCC(F)(F)F)n1)CN(c1ccc(C(C)(C)O)cc1)C2=O` [Example 351, 4-[4-fluoro-2-(2,2,2-trifluoroethoxy)phenyl]-2-[4-(2-hydroxypropan-2-yl)phenyl]-6-methyl-2,3-dihydro-1H-pyrrolo[3,4-c]pyridin-1-one], the inhibition at 10 µM was 100%.
For the molecule `Cc1cccc(OCC(F)(F)F)c1-c1nccc2c1CN(c1ccc(S(=O)(=O)C(F)F)cc1)C2=O` [Example 201, 2-[4-(difluoromethanesulfonyl)phenyl]-4-[2-methyl-6-(2,2,2-trifluoroethoxy)phenyl]-2,3-dihydro-1H-pyrrolo[3,4-c]pyridin-1-one], the inhibition at 10 µM came to 99%.
`Cc1cc2c(n(-c3ccccc3OCC(F)(F)F)c1=O)CN(c1ccc(C(C)(C)O)cc1)C2=O` [Example 337, 6-[4-(2-hydroxypropan-2-yl)phenyl]-3-methyl-1-[2-(2,2,2-trifluoroethoxy)phenyl]-6,7-dihydro-1H-pyrrolo[3,4-b]pyridine-2,5-dione]: the inhibition at 10 µM was determined as 98%.

(Values after patent publication US12528802B2, “Heterocyclic compound” (Takeda Pharmaceutical Company Limited, priority 2019, dated 2026).)
